Results taken from patent US12606635B2, “Glypican-2-binding moieties, chimeric antigen receptors and uses thereof” (Nanjing Legend Biotech Co., Ltd., priority 2020, dated 2026).

Experiments:
SH-SY5Y cells = experiment: Cytotoxicity of CAR T cells in presence of Compound A gradient; type: cell-based, human; details: 0.04-30 μM Compound A, E:T 0.2:1, 20 hours, FIG. 10
Description: To evaluate if Compound A influence to the cytotoxicity of CAR T against tumor cell, Compound A (CAS Number:191732-72-6, Sigma-Aldrich, St. Louis) stock was serially diluted to final concentration of 30, 10, 3.33, 1.11, 0.37, 0.12 and 0.04 μM using complete growth medium. In the presence of Compound A gradient, CAR T cells were co-incubated with tumor cells at an effector (CAR T) to target cell ratio of 0.2:1 for 20 hours. CAR T cells and tumor cells co-cultured without addition of Compound A served as a control. Cytotoxicity of CAR T cells on tumor cells was estimated using the Cytotoxicity Detection Kit (LDH) (Roche, #11644793001) as described in Example 6.

SH-SY5Y tumor cells = experiment: In vitro repetitive challenge assay with Compound A; type: cell-based, human
Description: To evaluate the effect of 3-(4-amino-1-oxo-1,3 dihydro-2H-isoindol-2-yl)piperidine-2,6-dione (Compound A) on CAR T cell recursive killing potential, T cell expansion and survival, an in vitro repetitive challenge assay was employed. Exemplary CAS70950VH6-BBz CAR T cells on day 11 post-transduction were co-cultured with SH-SY5Y tumor cells at an effector (CAR T) to target cell ratio of 1:2. The co-culture media was supplemented with 10 μM Compound A throughout this study. CAR T cells were re-challenged with tumor cells every 3 days (round 1, round 2, round 3 and round 4). CAR T cells and tumor cells co-cultured without addition of Compound A was used as a control. The percentages of CD3^+ T cells, percentages of CD3^+CAR^+ T cells were analyzed by flow cytometer. The amount of IFNγ in the co-culture supernatant was quantified using HTRF human IFNγ AlphaLISA kit (Perkin Elmer, #62HIFNGPEH) as described in Example 6.

[1] = tested on: neuroblastoma SH-SY5Y xenograft; details: mouse, in vivo
[2] = tested on: neuroblastoma SH-SY5Y xenograft; experiment: In vivo combination of Compound A and CAR T cells in SH-SY5Y xenograft; details: FIG. 12A

promotion of CAR+ T cells expansion by Compound A co-administration [1]: about 6 fold
Compound: Nc1cccc2c1CN(C1CCC(=O)NC1=O)C2=O (stereo not shown) [Compound A, 3-(4-amino-1-oxo-1,3 dihydro-2H-isoindol-2-yl)piperidine-2,6-dione]
effect of Compound A on cytotoxicity of CAS70950VH6-BBz CAR T cells against SH-SY5Y (SH-SY5Y cells): not impaired
IFNγ released from CAS70950VH6-BBz CAR T cells compared to non-treated CAR T cells (SH-SY5Y tumor cells; 10 μM Compound A): higher amount of IFNγ
CD3+CAR+ T cells survival and expansion after repetitive tumor challenges (SH-SY5Y tumor cells; CAS70950VH6-BBz CAR T cells with 10 μM Compound A, FIG. 11A-11B): promoted CD3^+CAR^+ T cells survival and expansion
effector activity of CAS70950VH6-BBz CAR T cells after repetitive tumor challenges (SH-SY5Y tumor cells; supplemented with 10 μM Compound A, FIG. 11A-11B): maintained their effector activity
tumor regression, Compound A in combination with CAS70950VH6-BBz CAR-T cells ([2]; Compound A 7.5 mg/kg i.p. 21 days plus 1.5×10^6 CAR+ T cells): more pronounced tumor regression
tumor growth, single treatment ([2]; twelve days after treatment, CAR T 1.5×10^6 i.v. or Compound A 7.5 mg/kg i.p. for 21 days): did not achieve any tumor suppression
